Experimental data: publication PMC6591251, “Discovery of potent necroptosis inhibitors targeting RIPK1 kinase activity for the treatment of inflammatory disorder and cancer metastasis” (Cell Death & Disease, 2019)

Legend:
U937 cells = assay: TNF-induced necroptosis (T/S/Z), cell viability by ATP levels; assay type: cell-based; conditions: Homo sapiens, U-937, 24 h, T/S/Z 24 h
[1] = test system: mouse embryonic fibroblasts (MEFs); assay: as above; assay type: cell-based; conditions: Fibroblast, 24 h, MEF, T/S/Z 24 h
RFP-LL/2 cells = assay: Lung metastasis model of RFP-labeled Lewis lung carcinoma cells; assay type: in vivo, C57BL/6 mice; conditions: 5 mg/kg ip pre-treatment; 14 days
Method: (§1) Studies have shown that RIPK1 kinase activity is involved in the promotion of tumor metastasis through death receptor 6-dependent necroptosis of endothelial cells[22] or VEGF-dependent activation of vascular permeability. We thus evaluated the therapeutic effect of PK68 on lung metastasis of mouse melanoma B16-F10 cells in vivo. […] After 2 weeks, the metastasis of B16-F10 cells was measured by histological analysis and assessed as the number of metastasis nodules in the lung. […] Two weeks after intravenous injection of RFP-LL/2 cells, RFP^+ LL/2 cells were isolated from the tumor tissues by flow cytometer sorting and no signal of phosphorylated RIPK1 was detected in these tumors cells (Supplementary Fig. 22). […] Further, we evaluated the effect of PK68 on the tumor cell transmigration across the cultured endothelium. […]
C57BL/6 mice bearing B16-F10 cells (a, b) or RFP-labeled LL/2 cells (c, d) were treated with vehicle, PK68 (5 mg/kg) or Nec-1s (5 mg/kg) as described in the Materials and methods. a, b Tumor metastasis of B16-F10 was measured by the numbers of metastasis nodules and histological analysis. […] The numbers of metastasis nodules on lung surfaces (b) in the metastasis model of B16-F10 were counted with the microscope. c, d Tumor metastasis of RFP-labeled LL/2 was calculated by RFP […] intensity. […]

[2] = test system: RFP-LL/2 cells through CD31+ endothelial cell monolayer; assay: Transendothelial migration assay; assay type: cell-based, mouse; conditions: 2 h pretreatment, 20 h
Method: as §1, with “22). Six hours after intravenous injection of RFP-LL/2 cells into C57BL/6 mice, the RFP-LL/2 cells have extravasated through blood vessels into the lung (Supplementary Fig. 23).” for “22).”
Primary CD31^+ endothelial cells isolated from lungs by using CD31 beads (Miltenyi Biotec) were used for the transendothelial migration assay as previously described. […] Then fluorescence picture of transmigrated RFP-LL/2 cells were taken at ×40 magnification under the microscope (Nikon), and the intensity of fluorescence was analyzed by Image J software. […]

Row | Compound | EC50 (U937 cells) | EC50 [1] | lung metastasis of RFP-LL/2 cells (RFP-LL/2 cells) | transmigration of RFP-LL/2 cells through the endothelial cell monolayer [2]
1 | CC(=O)Nc1nc2ccc(-c3cnc(Cl)c(NC(=O)Cc4ccccc4)c3)cc2s1 [PK6, N-(5-(2-acetamidobenzo[d]thiazol-6-yl)-2-chloropyridin-3-yl)-2-phenylacetamide] | ~1.33 µM | ~0.95 µM |  | 
2 | CC(=O)Nc1nc2ccc(-c3cnc(C)c(NC(=O)OC4CCCCC4)c3)cc2s1 [PK68, cyclohexyl (5-(2-acetamidobenzo[d]thiazol-6-yl)-2-methylpyridin-3-yl)carbamate] |  |  | markedly decreased | attenuated
